Assay results from paper PMC10485906, “Development of a Dihydroquinoline–Pyrazoline GluN2C/2D-Selective Negative Allosteric Modulator of the N-Methyl-D-aspartate Receptor” (ACS Chemical Neuroscience, 2023).
Values joined by “and” are separate entries in the source; they are usually repeats but may differ in a detail not shown here. Identical values can stand only once. Marks after values point to notes of the source that are not given here.

Key:
[1] = Liver microsome stability, human; format: in vitro ADME; conditions: for microsomal CLint at 3 μM: human liver microsomes; for half-life at 3 μM / remaining at 0.5 h, 3 µM: liver microsomes; for half-life at 3 μM: incubation up to 30 min, read-out: liver microsome stability T1/2, human; for remaining at 0.5 h, 3 µM: over the assay time course (30 min), read-out: % remaining, human LMs
Procedure: Human liver microsomes (HLMs, 20 mg/mL) and CD-1 mouse liver microsomes (MLMs, 20 mg/mL) were purchased from Xenotech. NADPH was purchased from Sigma-Aldrich and prepared in 10 mM stock solutions of distilled H2O (Invitrogen UltraPure). Verapamil and diphenhydramine were both purchased from Sigma-Aldrich and served as positive controls for HLM and MLM stability, respectively. Test compounds and positive controls were initially dissolved in DMSO to make 10 mM stock solutions. Sample solutions were then further diluted in 70% MeOH/H2O or 100% MeCN to 500 μM. Next, the reactions were prepared by mixing human or mouse liver microsomes (55 μL) with potassium phosphate buffer (100 mM, […]) in 1.5 mL Eppendorf tubes. The test compounds (6.6 μL of 500 μM solution) were subsequently added to the suspensions, and the reaction mixtures were incubated at 37 °C for 5 min. Afterward, the liver microsome reactions were initiated with 110 μL of 10 mM NADPH and further incubated at 37 °C for the designated time course of the study. This procedure provided experiments with a final volume of 1100 μL (<0.6% organic solvent content), a concentration for HLMs and MLMs of 1 mg/mL, and a final test compound concentration of 3 μM. Aliquots (100 μL) were removed from each reaction mixture in duplicate at 0, 5, 10, 15, and 30 min time intervals and quenched with 100 μL of cold internal standard solution (ISTD, 2 μM 7-ethoxy-d5-coumarin in MeOH or MeCN). Quenched aliquots were then centrifuged at 12 500 g for 5–10 min, and the resulting supernatants were withdrawn and placed in LC-MS vials to be analyzed by LC-MS/MS (Agilent G6460C QQQ MS coupled with an Infinity II 1260 HPLC). Each test compound was run in tandem with positive and negative control experiments for quality assurance. Positive control reactions were conducted at a final volume of 550 μL for a single run at each time point. Lastly, the negative control experiment was conducted with test compounds and liver microsomes in the absence of NADPH (150 μL) and analyzed at the 30 min time point.
For both LM and plasma assays, each data point was analyzed in triplicate using between blank washes to avoid carry over and to equilibrate the column for the subsequent runs. Averages of these triplicates for individual compounds at each time point were then normalized to the data at 0 min, representing 100% of the test compound remaining or 0% metabolism. Half-lives (t1/2) were calculated by plotting ln of % test compound remaining versus time and performing linear regression to determine slope. Slope = −k and t1/2 = 0.693/k for first-order kinetics (see Figures S5 and S6 for a representative example).

GluN1/GluN2B [2] = molecular target: T1, GluN1/GluN2B (Rattus norvegicus, UniProt P35439+Q00960); experiment: Two-electrode voltage-clamp recordings, Xenopus laevis oocytes, GluN1/GluN2B; format: cell-based; conditions: 100 μM glutamate, 30 μM glycine; for IC50: read-out: IC50 GluN2B [95% CI]; for remaining activity at 30 µM: 30 μM test compound, mean ± SEM, read-out: I 30 μM / I control GluN2B
T1 construct: GluN2B (NM_012574.1), GluN2C (NM_012575.3), and GluN2D (NM_022797.2) were provided by; expressed in transfected cells; host or cells: Xenopus laevis oocytes (cRNA injection)
Procedure: (§1) All target compounds were evaluated for NMDAR antagonism using two-electrode voltage-clamp recordings from Xenopus laevis oocytes coexpressing recombinant GluN1 and GluN2A-D subunits (Table 1).[32],[42],[33] All analogues were assessed as either a racemic (2b, 2e–2r) or diastereomeric (2d) mixture to simplify purification and streamline in vitro analysis. […] Moreover, as illustrated by the significant loss of NMDAR activity observed with nitrile 2e, the DQP allosteric site necessitated an H-bond donor/acceptor relationship at the carboxylate position. […] The loss of NMDAR activity observed with the trifluoro analogue 2j (Table S1) reinforced the necessity for an H-bond donor/acceptor relationship to maintain allosteric binding and established that fluorine substitution alone is ineffective. […] A single methyl substitution of the amide in compound 2q improved selectivity against GluN2A and had similar potency as 2a, whereas dual methyl substitution reduced potency (2r). We expect that this is likely due to the ability of the […] of the amide to accept hydrogen bonds while the amide can readily donate a proton.
(§2) Unfertilized Xenopus laevis oocytes were obtained from Ecocyte (Austin, TX), or ovaries were purchased from Xenopus 1 (Dexter, MI) and oocytes prepared as previously described.[42],[47] Two-electrode voltage-clamp recordings were performed on oocytes expressing recombinant rat GluN1/GluN2A, GluN1/GluN2B, GluN1/GluN2C, or GluN1/GluN2D. cDNAs for rat GluN1-1a (referred to as GluN1; NCBI Reference Sequence NM_017010.2), GluN2A (NM_012573.4), GluN2B (NM_012574.1), GluN2C (NM_012575.3), and GluN2D (NM_022797.2) were provided by Dr. S. Heinemann from the Salk Institute, Dr. S. Nakanishi from Kyoto University, and Dr. P. Seeburg from the University of Heidelberg. Oocyte isolation, cRNA synthesis, and cRNA injections were performed as previously described.[32],[33],[47] Briefly, Xenopus laevis oocytes were injected with 5–10 ng of cRNA in RNase-free water with the GluN1:GluN2 ratio ranging from 1:1 to 1:5. Oocytes were incubated at 15–19 °C in Barth’s solution consisting of (in mM) 88 NaCl, 1 KCl, 2.4 NaHCO3, 10 HEPES, 0.82 MgSO4, 0.33 Ca(NO3)2, and 0.41 CaCl2 supplemented with 100 μg/mL gentamycin, 40 μg/mL streptomycin, and 50 μg/mL penicillin. Recordings were performed 2–4 days after injection with extracellular recording solution containing (in mM) 90 NaCl, 1 KCl, 10 HEPES, 0.5 BaCl2, and 0.01 EDTA at pH 7.4 adjusted with NaOH. To prevent a gradual increase in current response over the course of the experiment, some oocytes expressing GluN1/GluN2A were injected with 20–50 nL of 2–50 mM K-BAPTA. Concentration–response curves for test compounds were generated by applying a maximally effective concentration of glutamate (100 μM) and glycine (30 μM), followed by glutamate and glycine with variable concentrations of test compounds up to 30 μM. The test compounds were prepared as 20 mM stock solutions in DMSO and diluted to the final concentration in recording solution. The DMSO content was 0.05–0.5% (v/v). […] Methods for off-target analysis are given in the Supporting Information.
(§3) Confidence intervals were determined for the log(IC50). The time course of relaxation during inhibitor application or deactivation following rapid removal of NMDA or glutamate was fitted by the equation [drawing 5] 2

GluN1/GluN2B [3] = molecular target: T2, GluN1/GluN2B (Rattus norvegicus, UniProt Q00960); experiment: as above; format: cell-based; conditions: mean ± SEM; for I3 μM/Icontrol GluN2B: tested at 3 μM; for I3 μM/Icontrol GluN2B / I / I control GluN2B: 100 μM glutamate, 30 μM glycine; for I / I control GluN2B: tested at 10 μM (footnote b)
T2 construct: GluN2B (NM_012574.1), GluN2C (NM_012575.3), and GluN2D (NM_022797.2) were provided by; expressed in transfected cells; host or cells: Xenopus laevis oocytes (cRNA injection)
Procedure: as §1, §2, §3

T2 sequence (Q00960 27-1482, other chains not shown): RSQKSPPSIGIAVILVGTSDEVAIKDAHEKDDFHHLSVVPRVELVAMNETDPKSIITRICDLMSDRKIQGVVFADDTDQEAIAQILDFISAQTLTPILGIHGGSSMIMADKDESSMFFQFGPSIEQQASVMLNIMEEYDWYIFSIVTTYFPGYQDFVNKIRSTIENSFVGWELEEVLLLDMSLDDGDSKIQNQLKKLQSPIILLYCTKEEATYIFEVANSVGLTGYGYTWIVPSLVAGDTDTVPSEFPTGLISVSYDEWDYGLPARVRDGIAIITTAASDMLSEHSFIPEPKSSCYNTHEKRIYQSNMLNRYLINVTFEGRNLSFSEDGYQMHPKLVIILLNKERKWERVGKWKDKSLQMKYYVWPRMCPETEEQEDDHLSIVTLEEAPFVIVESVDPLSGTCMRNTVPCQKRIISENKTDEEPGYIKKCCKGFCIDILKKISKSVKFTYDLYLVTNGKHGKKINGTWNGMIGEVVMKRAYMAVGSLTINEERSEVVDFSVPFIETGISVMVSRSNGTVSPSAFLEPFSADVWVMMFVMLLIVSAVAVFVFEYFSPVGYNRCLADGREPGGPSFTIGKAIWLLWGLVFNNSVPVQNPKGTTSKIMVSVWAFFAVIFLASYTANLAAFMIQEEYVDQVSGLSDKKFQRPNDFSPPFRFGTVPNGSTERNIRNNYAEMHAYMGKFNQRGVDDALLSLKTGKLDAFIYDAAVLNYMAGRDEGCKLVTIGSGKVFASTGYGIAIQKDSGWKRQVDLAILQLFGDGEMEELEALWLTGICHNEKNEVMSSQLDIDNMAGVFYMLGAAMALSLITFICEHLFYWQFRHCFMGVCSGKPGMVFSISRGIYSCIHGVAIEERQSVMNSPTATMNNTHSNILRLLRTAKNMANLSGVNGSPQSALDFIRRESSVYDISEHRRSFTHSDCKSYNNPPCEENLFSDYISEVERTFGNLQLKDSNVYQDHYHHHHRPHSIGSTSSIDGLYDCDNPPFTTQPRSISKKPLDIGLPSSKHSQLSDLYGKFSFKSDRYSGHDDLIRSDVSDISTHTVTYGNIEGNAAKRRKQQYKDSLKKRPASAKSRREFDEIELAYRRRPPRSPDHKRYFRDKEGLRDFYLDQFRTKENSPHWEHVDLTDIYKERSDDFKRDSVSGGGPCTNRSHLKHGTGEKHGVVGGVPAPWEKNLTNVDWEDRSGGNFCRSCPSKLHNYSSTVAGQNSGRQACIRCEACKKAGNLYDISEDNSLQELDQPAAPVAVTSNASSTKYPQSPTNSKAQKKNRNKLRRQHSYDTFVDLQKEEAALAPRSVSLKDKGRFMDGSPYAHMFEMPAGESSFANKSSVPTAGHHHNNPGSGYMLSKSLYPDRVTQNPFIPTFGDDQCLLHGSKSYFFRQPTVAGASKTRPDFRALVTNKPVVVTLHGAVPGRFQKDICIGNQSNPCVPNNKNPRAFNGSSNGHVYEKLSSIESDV
T1 sequence (Q00960 27-1482, other chains not shown): as above

Row | microsomal CLint at 3 μM [1] [µL/min/mg] | half-life at 3 μM [1] [min] | remaining at 0.5 h, 3 µM [1] [%] | IC50 (GluN1/GluN2B [2]) [µM] | I3 μM/Icontrol GluN2B (GluN1/GluN2B [3]) | I3 μM/Icontrol GluN2B (GluN1/GluN2B [3]; listed as racemic 2i) | remaining activity at 30 µM (GluN1/GluN2B [2]) [%] | I / I control GluN2B (GluN1/GluN2B [3]) | % control GluN1/GluN2B (GluN1/GluN2B [3]; 1 µM compound, 100 µM glutamate, 30 µM glycine) [%] | Compound
1 | < 23 | > 30 | > 95 |  |  |  |  |  |  | O=C(O)CCC(=O)N1N=C(c2c(-c3ccc(Cl)cc3)c3ccccc3[nH]c2=O)CC1c1ccc(Cl)cc1 (stereo not drawn) [2a]
2 | < 23 | > 30 | > 95 | 16 | 78 ± 2.9% and 78 ± 2.9 ^b (2,10) % | 78 ± 2.9 (2, 10) % |  |  |  | O=C(O)CC(F)(F)C(=O)N1N=C(c2c(-c3ccc(Cl)cc3)c3ccccc3[nH]c2=O)CC1c1ccc(Cl)cc1 (stereo not drawn) [2i]
3 | < 23 | > 30 | > 90 | 3.1 | 28 ± 4.5 ^b (3,10) % |  |  |  |  | NC(=O)CC(F)(F)C(=O)N1N=C(c2c(-c3ccc(Cl)cc3)c3ccccc3[nH]c2=O)CC1c1ccc(Cl)cc1 (stereo not drawn) [2k]
4 | 193 | 3.6 |  |  |  |  | 97 ± 2 |  |  | CCOC(=O)CC(F)(F)C(=O)N1N=C(c2c(-c3ccc(Cl)cc3)c3ccccc3[nH]c2=O)CC1c1ccc(Cl)cc1 (stereo not drawn) [2l]
5 | 173 | 4 |  |  |  |  | 88 ± 1.3 |  |  | CC(C)OC(=O)CC(F)(F)C(=O)N1N=C(c2c(-c3ccc(Cl)cc3)c3ccccc3[nH]c2=O)CC1c1ccc(Cl)cc1 (stereo not drawn) [2m]
6 | 289 | 2.4 |  |  |  |  | 92 ± 2.1 |  |  | O=C(CC(F)(F)C(=O)N1N=C(c2c(-c3ccc(Cl)cc3)c3ccccc3[nH]c2=O)CC1c1ccc(Cl)cc1)OCC1CC1 (stereo not drawn) [2n]
7 | 187 | 3.7 |  |  |  |  |  | 94 ± 1.0% |  | CC(C)(C)COC(=O)CC(F)(F)C(=O)N1N=C(c2c(-c3ccc(Cl)cc3)c3ccccc3[nH]c2=O)CC1c1ccc(Cl)cc1 (stereo not drawn) [2o]
8 | 105 | 6.6 |  |  |  |  | 103 ± 2.1 |  |  | O=C(CC(F)(F)C(=O)N1N=C(c2c(-c3ccc(Cl)cc3)c3ccccc3[nH]c2=O)CC1c1ccc(Cl)cc1)OCc1ccccc1 (stereo not drawn) [2p]
9 | 104 | ≤ 7 |  | 20 |  |  |  | 81 ± 8.7 ^b (3, 10) % |  | CNC(=O)CC(F)(F)C(=O)N1N=C(c2c(-c3ccc(Cl)cc3)c3ccccc3[nH]c2=O)CC1c1ccc(Cl)cc1 (stereo not drawn) [2q]
10 | 165 | ≤ 7 |  |  |  |  |  | 78 ± 4.2 ^b (4,22) % |  | CN(C)C(=O)CC(F)(F)C(=O)N1N=C(c2c(-c3ccc(Cl)cc3)c3ccccc3[nH]c2=O)CC1c1ccc(Cl)cc1 (stereo not drawn) [2r]
11 |  |  |  | 16 | 89 ± 6.2 (3, 18) % |  |  |  | 90 ± 3.5 | O=C(O)CC(F)(F)C(=O)N1N=C(c2c(-c3ccc(Cl)cc3)c3ccccc3[nH]c2=O)C[C@H]1c1ccc(Cl)cc1 [(S)-(−)-2i]
